# Results published in patent US20030105043A1, “Apoptosis-inducing ribozymes” (priority 2000, published 2003).
# Assays:
# rat MT-I cRNA = test: cell-free ribozyme cleavage of labeled rat MT-I cRNA; assay type: biochemical; details: for cleavage activity on rat MT-I cRNA: cell-free, excess unlabeled ribozyme, 37° C., 16 hours
# Description: (§1) Bluescript plasmids containing the rat MT cDNA (pBSMT-I and pBSMT-2) were constructed as described above. A plasmid containing the mouse MT-I (pSP-MT-I) and a second plasmid (SDF 102.C1) containing MT-II cDNA (Durnam et al., 1980, Proc. Natl. Acad. Sci. USA 77:6511-6515) were linearized with HindIII and in vitro transcribed into labeled MT cRNAs with [α-32P]UTP, T3 RNA polymerase (Promega, Madison, Wis.), and the Maxiscript In Vitro Transcription Kit (Ambion, Inc, Austin, Tex.). Ribozymes were generated as unlabeled molecules from pRz1-2 and pRz4-9 using either the T3 or T7 promoter of the pClneo vectors, and unlabeled nucleoside triphosphates.
# (§2) To test ribozyme activity, radiolabeled rat metallothionein cRNAs were synthesized by in vitro transcription from linearized plasmids and incubated with an excess of unlabeled ribozymes at 37° C. for 16 hours. The enzymatic activity was terminated with an equal volume of stop buffer. After denaturing at 95° C. for 2 minutes, the cleavage products were separated in a 6% polyacrylamide/8M urea gel, dried and exposed to X-ray film to obtain autoradiograms. The uncut rat MT-I (poly A) and MT-II (poly A) molecules were 435 nucleotides and 350 nucleotides, respectively. Rz1-2-mediated cleavage fragments of rat MT-I(poly A) were 360 nucleotides and 115 nucleotides in length. The cleavage fragments produced by Rz4-9 activity on MT-II(polyA) were 260 nucleotides and 90 nucleotides in length.
# (§3) Initial experiments were designed to determine effective and linear catalytic temperature ranges for Rz1-2 and Rz4-9. A ribozyme and a labeled substrate were mixed in a 1:1 molar ratio in a 10 μL reaction mixture composed of 40 mM Tris-HCl (pH 7.5) and 20 mM MgCl2 (previously determined to be optimal for cleavage activity). The reaction mixture was denatured for 2 minutes at 95° C. and then snapcooled on ice for 5 minutes. Catalytic reactions were conducted at 25° C., 37° C., and 50° C. for 1, 3, or 16 hours. […] An excess of unlabeled anti-MT Rzs (Rz1-2 and Rz4-9) and their corresponding mutants (Rz2-6 and Rz3-3) were mixed with labeled rat or mouse MT-I or MT-II cRNA and incubated at 37° C. for 16 hours. At the end of these experiments, all catalytic reactions were terminated with an equal volume of stop buffer (10 mM EDTA, 90% formamide, 0.1% bromophenol blue, and 0.1% xylene cyanol). After denaturing at 95° C. for 2 minutes, the cleavage products were separated in a 6% polyacrylamide/8M urea gel, dried, and exposed to X-ray film to obtain autoradiograms. The sizes of the uncut rat MT-I (poly A) and MT-II (poly A) molecules were 435 nucleotides and 350 nucleotides, respectively. Rz1-2-mediated cleavage fragments of rat MT-I(poly A) were of 360 nucleotides and 115 nucleotides in length and those produced by Rz4-9 activity on MT-II(polyA) were 260 nucleotides and 90 nucleotides. Incubation with the mutant Rzs, Rz2-6 or Rz3-3, produced no products.
# (§4) Hammerhead ribozymes were tested for specific endonuclease activity under cell-free conditions. In vitro transcription from pBSMT-I and pBSMT-II using 2.5 μg HindIII linearized plasmid and T3 RNA polymerase yielded 5 μg of rat MT-I and MT-II cRNA. In parallel, mouse MT-I and MT-II cRNA were generated from plasmids containing mouse MT sequences (pSP-MT-I). These molecules containing the entire metallothionein coding region and a poly (A) tail 435 nucleotides (rat MT-I cRNA), 350 nucleotides (rat MT-II cRNA), 380 nucleotides ([…]) and 460 nucleotides ([…]) in length. They were used as substrate for the ribozyme reactions. […] Similar sequence specificity data were obtained for mouse metallothionein cRNAs. All cleavage products were of the predicted sizes.
# rat MT-II cRNA = test: cell-free ribozyme cleavage of labeled rat MT-II cRNA; assay type: biochemical; details: for cleavage activity on rat MT-II cRNA: cell-free, excess unlabeled ribozyme, 37° C., 16 hours
# Description: as §1, §2, §3, §4
# [1] = cell-free cleavage, 1:1 molar ratio
Substance,cleavage activity on rat MT-I cRNA (rat MT-I cRNA),optimal Mg^2+ for ribozyme activity (rat MT-II cRNA; cell-free cleavage),period over which ribozyme remained active (rat MT-II cRNA; cell-free cleavage),temperature at which ribozyme is most effective (rat MT-II cRNA; cell-free cleavage),temperature range over which ribozyme is active (rat MT-II cRNA; [1]),cleavage activity on rat MT-II cRNA (rat MT-II cRNA),optimal Mg^2+ for ribozyme activity (rat MT-I cRNA; cell-free cleavage),period over which ribozyme remained active (rat MT-I cRNA; cell-free cleavage),temperature at which ribozyme is most effective (rat MT-I cRNA; cell-free cleavage),temperature range over which ribozyme is active (rat MT-I cRNA; [1])
"Rz4-9: hammerhead ribozyme, SEQ ID NO:7, designed to cleave MT-II mRNA (CCUCUUUGCACUGAUGAGUCCGUGAGGACGAAAUGCAGCCCU; listed as RNA, chemistry not fully specified)",did not mediate rat MT-I cRNA cleavage,20 mM,16 h,37 °C,25-50 °C,cut only rat MT-II cRNAs,–,–,–,–
"Rz1-2: hammerhead ribozyme, SEQ ID NO:6, designed to cleave mouse and rat MT-I mRNA (GCGCCUUUGCACUGAUGAGUCCGUGAGGACGAAACACAGCCCU; listed as RNA, chemistry not given here)",active,–,–,–,–,no activity,20 mM,16 h,37 °C,25-50 °C
